Experimental data as given in patent publication US8796415B2, “Inhibitors of guanine exchange factors and their use as anticancer drugs” (Centre National de la Recherche Scientifique, priority 2009, dated 2014).
Ends that are not written are not given here.

Assays:
Format in all cases: biochemical
Trio DH2-PH2 = target: T1, Trio DH2-PH2 (Homo sapiens, UniProt O75962); experiment: [3H]-GDP dissociation assay on Trio DH2-PH2; conditions: 0.15 μM GST-Trio DH2-PH2, 3 μM GST-TRIP inhibitors
T1 construct: made in house
Method: Each residue of the active core of TRIPα (amino acids 9-36; Schmidt et al., 2002) was mutated to alanine, except cysteines which were changed into serines. All TRIPα mutants were then tested for their inhibitory activity on Trio DH2-PH2 in [3H]-GDP dissociation assays. This analysis mapped two essential regions of TRIPα, amino acids 9-20 and 28-33, where single mutations were sufficient to impair inhibition (see table 3).
The inventors next reasoned that peptides that would bind stronger to the GEF domain may also be better at inhibiting its activity. […] These clones were then produced as GST fusions and analyzed for their inhibition of Trio DH2-PH2, using the [3H]-GDP dissociation assay. […]
An aptamer library derived from TRIPα was created by PCR-based random mutagenesis of TRIPα inserted into the yeast two-hybrid vector pPC86. […] Selected peptides were then produced as GST-fusions and analyzed for their inhibition of Trio DH2-PH2 using the [3H]-GDP dissociation assay.
Radioactive [3H]-GDP dissociation assays were performed as described (Schmidt et al., 2002). […] Inhibition efficiency is expressed as the ratio between [3H]-GDP-bound RhoA at 15 and 0 min. Apparent inhibition constants (Kiapp) of TRIP-like peptides were determined from kobs values obtained at increasing peptide concentrations using the above fluorescence nucleotide exchange assay. […]

p115RhoGEF = target: T2, p115RhoGEF (Homo sapiens, UniProt Q92888); experiment: mant-GTP fluorescence kinetics specificity assay, RhoA/p115RhoGEF; conditions: peptide 20 μM, 0.5 μM GEF, 1 μM RhoA
T2 construct: GST (N); made in house; host or cells: baculovirus system
T2 sequence (Q92888 1-912): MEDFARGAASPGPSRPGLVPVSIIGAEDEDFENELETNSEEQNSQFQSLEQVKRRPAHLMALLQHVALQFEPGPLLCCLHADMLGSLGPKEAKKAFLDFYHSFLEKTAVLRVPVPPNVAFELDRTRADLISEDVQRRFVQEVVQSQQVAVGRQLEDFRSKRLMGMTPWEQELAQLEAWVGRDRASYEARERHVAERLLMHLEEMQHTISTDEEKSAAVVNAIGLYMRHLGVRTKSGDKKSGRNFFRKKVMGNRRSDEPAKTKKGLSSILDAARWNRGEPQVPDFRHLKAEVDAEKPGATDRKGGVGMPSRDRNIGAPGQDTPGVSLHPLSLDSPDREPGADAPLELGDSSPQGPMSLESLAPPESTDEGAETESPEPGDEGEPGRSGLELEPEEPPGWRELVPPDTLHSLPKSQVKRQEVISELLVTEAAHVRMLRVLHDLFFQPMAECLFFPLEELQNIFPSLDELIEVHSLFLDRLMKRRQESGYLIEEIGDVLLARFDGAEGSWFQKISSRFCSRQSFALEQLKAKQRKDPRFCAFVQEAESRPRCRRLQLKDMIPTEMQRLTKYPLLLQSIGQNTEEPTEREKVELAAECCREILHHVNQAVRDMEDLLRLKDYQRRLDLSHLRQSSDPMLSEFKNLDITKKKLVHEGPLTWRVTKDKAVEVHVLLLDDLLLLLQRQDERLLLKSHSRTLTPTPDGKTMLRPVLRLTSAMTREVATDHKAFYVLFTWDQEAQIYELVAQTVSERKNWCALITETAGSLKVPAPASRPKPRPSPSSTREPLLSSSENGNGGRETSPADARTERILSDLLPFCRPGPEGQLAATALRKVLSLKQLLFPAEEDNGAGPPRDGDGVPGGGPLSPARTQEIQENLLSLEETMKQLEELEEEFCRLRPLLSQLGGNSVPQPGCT
Method: (§1) Figures represent the comparison of TRIPE32G and TRIPT16M/L17S inhibition efficiency on different GTPase/RhoGEF systems, using 1 μM GTPase and 0.5 μM GEF as follows:
(§2) In each assay, the peptides were used at a concentration of 20 μM, corresponding to a 40 fold molar excess of inhibitor versus GEF. All fluorescence kinetics assays were performed using 1 μM mant-GTP. Results are expressed as Relative Fluorescence Units (RFU) versus time. The reaction performed in the absence of GEF reflects the spontaneous exchange activity of the GTPase.
(§3) Radioactive [3H]-GDP dissociation assays were performed as described (Schmidt et al., 2002). […] Inhibition efficiency is expressed as the ratio between [3H]-GDP-bound RhoA at 15 and 0 min. Apparent inhibition constants (Kiapp) of TRIP-like peptides were determined from kobs values obtained at increasing peptide concentrations using the above fluorescence nucleotide exchange assay. Kiapp was calculated from the hyperbolic fit of kobs values as a function of the inhibitor concentration as described (Zeeh et al., 2006). TRIP-like peptide specificity was assayed using mant-GTP fluorescence kinetics (λex=360 nm, λem=460 nm) in a FLX800 Microplate Fluorescence Reader (BioTek Instruments). […] The exchange reaction was initiated by addition of 1 μM RhoA or RhoG and monitored for 10 min.

Dbl = experiment: mant-GTP fluorescence kinetics specificity assay, RhoA/Dbl; conditions: peptide 20 μM, 1 μM RhoA
Dbl, sequence (P10911 495-809 limits assumed): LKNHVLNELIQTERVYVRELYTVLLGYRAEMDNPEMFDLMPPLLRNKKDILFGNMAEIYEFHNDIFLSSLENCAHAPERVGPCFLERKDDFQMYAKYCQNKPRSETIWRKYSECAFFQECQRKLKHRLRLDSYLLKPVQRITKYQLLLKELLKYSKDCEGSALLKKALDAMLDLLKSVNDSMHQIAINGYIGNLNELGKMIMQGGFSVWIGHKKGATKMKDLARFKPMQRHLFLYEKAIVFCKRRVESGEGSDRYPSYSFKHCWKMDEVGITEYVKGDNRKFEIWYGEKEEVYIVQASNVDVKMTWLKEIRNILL
Method: as §1, §2, §3

Substance	Inhibition efficiency on Trio DH2-PH2 compared to TRIPα (Trio DH2-PH2)	effect on exchange activity of p115RhoGEF/RhoA (p115RhoGEF)	effect on exchange activity of Dbl/RhoA (Dbl)
GST-TRIPT16M/L17S	highest inhibition on Trio DH2-PH2	no effect	no effect
GST-TRIPE32G (AREGADGAICGYNLATLVMLGPSERVFCPLCGPCSSDIYELM; cysteine pairing not given here; also: GST fusion)	highest inhibition on Trio DH2-PH2	no effect	no effect
